# Patent US20150094345A1, “PHARMACEUTICAL FORMULATION HAVING IMPROVED STABILITY” (priority 2012, published 2015)
# Test: 6-month stability study of the compositions (impurity concentrations)
# Assay type: physicochemical
smiles,measurement,setting,value
CCOC(=O)C1=C(COCCN)NC(C)=C(C(=O)OC)C1c1ccccc1Cl (centres unmarked) [amlodipine besylate],concentration of the main decomposition product of amlodipine besylate (European Pharmacopeia: Impurity D),"any storage condition, 6-month stability testing period, composition containing ramipril and amlodipine",≤ 0.05%
same,stability of amlodipine besylate in the combination dosage form,until the end of the six-month stability testing period,remains stable
